In patent US20120220577A1, “GLYCINE B ANTAGONISTS” (Merz Pharma GmbH & Co KgaA, priority 2009, published 2012):

Assays:
[1] = biological target: NMDA receptor glycine B site (Rattus norvegicus, UniProt P35439); experiment: Calcium FLIPR studies, rat cortical neurons (NMDA/D-Serine induced intracellular calcium); format: cell-based; parameters: Primary neurons are prepared from cortices of embryonal rats at day 17 of pregnancy; endogenous in cells; host or cells: primary rat cortical neurons (E17, 11-13 DIV); details: rat cortical neurons; stimulation with 30 μM NMDA and 1 μM D-Serine; antagonist pre-incubated 10 min; read-out: NMDA-FLIPR-rCTX-NAM - IC50
Method in brief: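 Embryonic (E17) Sprague-Dawley rat cortical neurons, 11-13 days in vitro, loaded with Calcium-4 dye (pH 7.3) and pre-incubated with antagonist (5 concentrations) for 10 min at room temperature, then stimulated with 30 μM NMDA plus 1 μM D-Serine. FLIPR AUC as percent of agonist control; IC50 by four-parameter logistic fit.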

[2] = biological target: T1, glycine binding pocket of the NMDA receptor (Rattus norvegicus, UniProt P35439); experiment: [3H]MDL-105,519 displacement studies (rat cortical membranes); details: displacement of 2 nM [3H]-MDL-105,519, rat cortical membranes; read-out: NMDA-MDL 105519-r-CTX - IC50
T1 construct: For isolation of the cell membranes, the cortices are homogenized; from tissue; host or cells: rat cerebral cortex membranes (male Sprague-Dawley)

IC50 [1]	IC50 [2]	SMILES
6200 nM	1180 nM	O=C(O)COc1cc(C(=O)O)cc2cc(Cl)cc(Cl)c12 [Example 1, 4-Carboxymethoxy-5,7-dichloronaphthalene-2-carboxylic acid]
3270 nM	765 nM	O=C(COc1cc(C(=O)O)cc2cc(Cl)cc(Cl)c12)Nc1ccccc1C(=O)O [Example 3, 4-[(2-Carboxy-phenylcarbamoyl)-methoxy]-5,7-dichloro-naphthalene-2-carboxylic acid]
7080 nM	562 nM	O=C(COc1cc(C(=O)O)cc2cc(Cl)cc(Cl)c12)Nc1ccccc1CO [Example 5, 5,7-Dichloro-4-[(2-hydroxymethylphenylcarbamoyl)-methoxy]-naphthalene-2-carboxylic acid]
4010 nM	958 nM	O=C(O)Cc1ccc(NC(=O)COc2cc(C(=O)O)cc3cc(Cl)cc(Cl)c23)cc1 [Example 7, 4-[(4-Carboxymethylphenylcarbamoyl)-methoxy]-5,7-dichloronaphthalene-2-carboxylic acid]
1960 nM	457 nM	O=C(O)Cc1cccc(NC(=O)COc2cc(C(=O)O)cc3cc(Cl)cc(Cl)c23)c1 [Example 13, 4-[(3-Carboxymethylphenylcarbamoyl)-methoxy]-5,7-dichloronaphthalene-2-carboxylic acid]
7330 nM	4340 nM	CN(C(=O)COc1cc(C(=O)O)cc2cc(Cl)cc(Cl)c12)c1ccc(C(=O)O)cc1 [Example 14, 4-{[(4-Carboxy-phenyl)-methylcarbamoyl]-methoxy}-5,7-dichloronaphthalene-2-carboxylic acid]
2680 nM	503 nM	O=C(O)Cc1ccccc1NC(=O)COc1cc(C(=O)O)cc2cc(Cl)cc(Cl)c12 [Example 15, 4-[(2-Carboxymethylphenylcarbamoyl)-methoxy]-5,7-dichloronaphthalene-2-carboxylic acid]
9560 nM	988 nM	O=C(COc1cc(C(=O)O)cc2cc(Cl)cc(Cl)c12)NCc1ccccc1 [Example 18, 4-(Benzylcarbamoylmethoxy)-5,7-dichloro-naphthalene-2-carboxylic acid]
1220 nM	405 nM	CN(C(=O)COc1cc(C(=O)O)cc2cc(Cl)cc(Cl)c12)c1ccccc1C(=O)O [Example 20, 4-{[(2-Carboxyphenyl)-methylcarbamoyl]-methoxy}-5,7-dichloronaphthalene-2-carboxylic acid]
211 nM	11.9 nM	NCc1ccc(NC(=O)COc2cc(C(=O)O)cc3cc(Cl)cc(Cl)c23)c(OCC(=O)O)c1 [Example 34, 4-[(4-Aminomethyl-2-carboxymethoxyphenylcarbamoyl)-methoxy]-5,7-dichloronaphthalene-2-carboxylic acid]
105 nM	55 nM	O=C(O)COc1ccccc1NC(=O)COc1cc(C(=O)O)cc2cc(Cl)cc(Cl)c12 [Example 42, 4-[(2-Carboxymethoxyphenylcarbamoyl)-methoxy]-5,7-dichloronaphthalene-2-carboxylic acid]
7410 nM	1190 nM	O=C(O)c1cc(OCC(=O)N2CCCc3ccccc32)c2c(Cl)cc(Cl)cc2c1 [Example 50, 5,7-Dichloro-4-[2-(3,4-dihydro-2H-quinolin-1-yl)-2-oxo-ethoxy]-naphthalene-2-carboxylic acid]
1700 nM	228 nM	O=C(COc1cc(C(=O)O)cc2cc(Cl)cc(Cl)c12)Nc1ccccc1OCC(=O)N1CCOCC1 [Example 54, 5,7-Dichloro-4-{[2-(2-morpholin-4-yl-2-oxo-ethoxy)-phenylcarbamoyl]-methoxy}-naphthalene-2-carboxylic acid]
880 nM	83 nM	O=C(O)COc1ccccc1CNC(=O)COc1cc(C(=O)O)cc2cc(Cl)cc(Cl)c12 [Example 59, 4-[(2-Carboxymethoxy-benzylcarbamoyl)-methoxy]-5,7-dichloro-naphthalene-2-carboxylic acid]
1560 nM	203 nM	O=C(COc1cc(C(=O)O)cc2cc(Cl)cc(Cl)c12)Nc1ccccc1OCc1nnn[nH]1 [Example 60, 5,7-Dichloro-4-{[2-(1H-tetrazol-5-ylmethoxy)-phenylcarbamoyl]-methoxy}-naphthalene-2-carboxylic acid]
5460 nM	1010 nM	COCC(Oc1cc(C(=O)O)cc2cc(Cl)cc(Cl)c12)C(=O)Nc1ccccc1OC (stereo not shown) [Example 74, 5,7-Dichloro-4-[2-methoxy-1-(2-methoxy-phenylcarbamoyl)-ethoxy]-naphthalene-2-carboxylic acid]
4130 nM	988 nM	O=C(O)c1cc(OCC(=O)N2CCOc3c(CO)cccc32)c2c(Cl)cc(Cl)cc2c1 [Example 78, 5,7-Dichloro-4-[2-(8-hydroxymethyl-2,3-dihydro-benzo[1,4]oxazin-4-yl)-2-oxo-ethoxy]-naphthalene-2-carboxylic acid]
